Experiments:
RD = assay: Cellular proliferation, RD cells; assay type: cell-based; conditions: Table 11, MYC-directed PNA, 2.5 μM
Description: (§1) For this purpose 5×10^3 cells per well were seeded into 96-well cell culture plates (experiments conducted in triplicate) with 100 μl of OPTI-MEM (GIBCO BRL) medium containing 4% FBS and 2 mM of L-glutammine.
(§2) Cell viability was assessed by means of an ATP-Lite assay (Luminescence ATP Detection Assay System, PerkinElmer) and is reported as the ratio between the average signal of the treated wells compared to the average value of the wells of untreated control cells. The cells were processed following the instructions provided with the kit.
(§3) The oligonucleotides were tested in vitro (at a concentration of 2.5 μM) to determine their ability to inhibit the transcription of the gene they are directed against by measuring the levels of the gene messenger in cellular models in which the gene of interest is overexpressed. The methods used are the ones described in example 1.
(§4) In particular, SEQ ID NO: 66-69 (directed against MYCN) were tested in vitro in the Kelly and H69 cell lines; SEQ ID NO: 70-74 (directed against MYC) were tested in vitro in the H82 and RD cell lines, SEQ ID NO: 75, 76 (directed against BIRC5) were tested in vitro in the Kelly cell line, SEQ ID NO: 77-79 (directed against ALK) were tested in vitro in the Kelly cell line, SEQ ID NO: 80-82 (directed against BCL2) were tested in vitro in the Kelly cell line and SEQ ID NO: 83, 84 (directed against PLK4) were tested in vitro in the Kelly cell line.
(§5) The ability of the tested oligonucleotides to inhibit the messenger of the gene of interest was measured and the proliferative capacity of the cells following administration of the oligonucleotides was also assessed.

MYC [1] = assay: QT-PCR, MYC mRNA in H82 cells; assay type: cell-based; conditions: Table 11, 2.5 μM
Description: (§6) For the purpose of assessing the ability of the oligonucleotides of the present invention to modulate the expression of the target genes, their ability to reduce the quantity of messenger RNA was analyzed using the Real-Time PCR technique.
(§7) The cells were treated with the oligonucleotides, adding FBS up to 4% 6 hours after administration of the same. After 24 hours the total RNA was extracted from each well and purified using the RNeasy Mini Kit (QIAGEN).
(§8) As a control, use was made of the same cell lines as listed above treated with sterile water instead of oligonucleotides. Each RNA sample was quantified (in duplicate) using a NanoDrop ND-1000 spectrophotometer (NanoDrop Technologies). The first strand of cDNA was produced using the cDNA Synthesis Kit for RT-PCR (Roche). For the cDNA synthesis reaction a total of 1 μg of RNA was used. For the real-time PCR, 10 ng of cDNA in a final volume of 20 μl was used with SYBR Green Master Mix 2× (Applied Biosystems) (3 identical experiments were conducted in triplicate). Two housekeeping genes were used as positive controls: GAPDH and beta-actin (ACTB).
(§9) The conditions of the QT-PCR reaction were: 10 min at 95° C., 20 sec at 95° C., and 30 sec at 60° C., for 50 cycles.
as §3, §4, §5

MYC [2] = assay: QT-PCR, MYC mRNA in RD cells; assay type: cell-based; conditions: Table 11, 2.5 μM
Description: as §6, §7, §8, §9, §3, §4, §5

H82 = assay: Cellular proliferation, H82 cells; assay type: cell-based; conditions: Table 11, MYC-directed PNA, 2.5 μM
Description: as §1, §2, §3, §4, §5

BIRC5 = assay: QT-PCR, BIRC5 mRNA in Kelly cells; assay type: cell-based, human; conditions: Table 11, 2.5 μM
Description: as §6, §7
as §8, with “(ACTB). […]” for “(ACTB).”
as §5

Kelly cells = assay: Cellular proliferation assay (ATP-Lite), Kelly cells; assay type: cell-based, human; conditions: 2.5 μM
Description: For the purpose of assessing the gene modulation ability of the oligonucleotides of the present invention, the effect of their administration on cell viability was determined.
as §1
The PNA oligonucleotides were administered at different concentrations (1 μM-2.5 μM-5 μM-10 μM) in order to observe a dose-effect relationship.
As regards all the other oligonucleotides, the concentrations at which they administered are listed in the paragraph:
The viability of the treated cells was determined at 48, 72, 96 and 168 hours after treatment.
as §2
The assays were performed on the same cell lines used to determine the levels of the MYCN gene messenger and listed in the paragraph: Treatments with Oligonucleotides—QT-PCR.
As far as the PNA oligonucleotides are concerned, the results regarding their ability to inhibit the transcription of the MYCN gene and proliferation of Kelly cells are shown in Table 1.
as §5

ALK = assay: QT-PCR, ALK mRNA in Kelly cells; assay type: cell-based, human; conditions: Table 11, 2.5 μM
Description: as §6, §7, §8, §9
as §3, with “1. […]” for “1.”
as §5

BCL2 = assay: QT-PCR, BCL2 mRNA in Kelly cells; assay type: cell-based, human; conditions: Table 11, 2.5 μM
Description: as §6, §7, §8, §9
as §3, with “1. […]” for “1.”
as §5

PLK4 = assay: QT-PCR, PLK4 mRNA in Kelly cells; assay type: cell-based, human; conditions: Table 11; PLKA4, Kelly cells; 2.5 μM
Description: as §6, §7
as §8, with “(ACTB). […]” for “(ACTB).”
as §5

Substance	Cell Prolif. (%) (RD)	mRNA inhibit. (%) (MYC [1])	mRNA inhibit. (%) (MYC [2])	Cell Prolif. (%) (H82)	also measured
SEQ ID NO: 70: PNA CTCAGAGGCTTGGCGG directed against MYC (all peptide nucleic acid (PNA); antigene PNA)	73%	43%	34%	79%	–
SEQ ID NO: 71: PNA GCGGCCGGCTAGGGTG directed against MYC (all peptide nucleic acid (PNA); antigene PNA)	65%	46%	42%	75%	–
SEQ ID NO: 72: PNA CGGCCGGCTAGGGTGG directed against MYC (all peptide nucleic acid (PNA); antigene PNA)	53%	52%	58%	64%	–
SEQ ID NO: 73: PNA CGACGGCGGTGGCGGG directed against MYC (all peptide nucleic acid (PNA); antigene PNA)	51%	56%	59%	65%	–
SEQ ID NO: 74: PNA GGACGGGGGCGGTGGA directed against MYC (all peptide nucleic acid (PNA); antigene PNA)	47%	61%	64%	61%	–
SEQ ID NO: 75: PNA GCGGCGGCATGGGTGC directed against BIRC5 (all peptide nucleic acid (PNA); antigene PNA)	–	–	–	–	mRNA inhibit. (%) (BIRC5): 69%; Cell Prolif. (%) (Kelly cells; Table 11, BIRC5-directed PNA): 43%
SEQ ID NO: 76: PNA GGCGGCGGCATGGGTG directed against BIRC5 (all peptide nucleic acid (PNA); antigene PNA)	–	–	–	–	mRNA inhibit. (%) (BIRC5): 78%; Cell Prolif. (%) (Kelly cells; Table 11, BIRC5-directed PNA): 35%
SEQ ID NO: 77: PNA GCAGGAGAGGACGGTA directed against ALK (all peptide nucleic acid (PNA); antigene PNA)	–	–	–	–	mRNA inhibit. (%) (ALK): 57%; Cell Prolif. (%) (Kelly cells; Table 11, ALK-directed PNA): 55%
SEQ ID NO: 78: PNA CAGGAGAGGACGGTAC directed against ALK (all peptide nucleic acid (PNA); antigene PNA)	–	–	–	–	mRNA inhibit. (%) (ALK): 68%; Cell Prolif. (%) (Kelly cells; Table 11, ALK-directed PNA): 46%
SEQ ID NO: 79: PNA GGCAGGAGAGGACGGT directed against ALK (all peptide nucleic acid (PNA); antigene PNA)	–	–	–	–	mRNA inhibit. (%) (ALK): 79%; Cell Prolif. (%) (Kelly cells; Table 11, ALK-directed PNA): 39%
SEQ ID NO: 80: PNA GGATGGCGCACGCTGG directed against BCL2 (all peptide nucleic acid (PNA); antigene PNA)	–	–	–	–	Cell Prolif. (%) (Kelly cells; Table 11, BCL2-directed PNA): 62%; mRNA inhibit. (%) (BCL2): 59%
SEQ ID NO: 81: PNA GGGAAGGATGGCGCAC directed against BCL2 (all peptide nucleic acid (PNA); antigene PNA)	–	–	–	–	Cell Prolif. (%) (Kelly cells; Table 11, BCL2-directed PNA): 58%; mRNA inhibit. (%) (BCL2): 62%
SEQ ID NO: 82: PNA CCACGGTGGTGGAGGA directed against BCL2 (all peptide nucleic acid (PNA); antigene PNA)	–	–	–	–	Cell Prolif. (%) (Kelly cells; Table 11, BCL2-directed PNA): 55%; mRNA inhibit. (%) (BCL2): 68%
SEQ ID NO: 83: PNA ACGGCAAGCGGCGGGA directed against PLK4 (all peptide nucleic acid (PNA); antigene PNA)	–	–	–	–	mRNA inhibit. (%) (PLK4): 62%; Cell Prolif. (%) (Kelly cells; Table 11, PLK4-directed PNA): 59%
SEQ ID NO: 84: PNA GGACGGCAAGCGGCGG directed against PLK4 (all peptide nucleic acid (PNA); antigene PNA)	–	–	–	–	mRNA inhibit. (%) (PLK4): 74%; Cell Prolif. (%) (Kelly cells; Table 11, PLK4-directed PNA): 49%

Source: patent publication US10752900B2, “Oligonucleotides for modulating gene expression and uses thereof” (BIOGENERA S.P.A., priority 2012, dated 2020)
